According to US11324763B2, “Malaria transmission prevention agent having rare sugar as effective component thereof and malarial parasite growth regulating agent” (NATIONAL UNIVERSITY CORPORATION KAGAWA UNIVERSITY, priority 2014, dated 2022):
“Also recorded” adds a separate entry of the source.

What was measured:
Format in all cases: in vivo
[1] = tested on: Plasmodium berghei transmission from Anopheles stephensi mosquitoes to BALB/c mice; assay: Infectivity to mice: malaria transmission by rare-sugar-fed mosquitoes sucking blood of BALB/c mice; details: for onset of malaria in mice: compared with 10 mM group and fructose single feeding group
Description: 20 days after sucking blood of an infected mouse, each group of mosquitoes which had been fed with a rare sugar (D-allose or D-psicose) and a control group of mosquitoes which had not been fed with a rare sugar were made to suck blood of mice, and the infectivity of malaria in mice was examined. As a result, in a group in which the mosquitoes fed with D-allose were made to suck blood, malaria infection was not observed in about 70% of mice, and the infection inhibitory effect of a rare sugar was confirmed.
(§1) Each of the Anopheles stephensi mosquitoes in the three groups fed with the feed for 20 days in the above Example 1 was made to suck blood of the BALB/c mice (6 weeks of age, female). In each group, 50 mosquitoes were made to suck blood of 5 mice for 1 minute 5 times for each mouse. Every day from 2 days after sucking blood, a smear preparation was prepared from a small amount of blood collected from the tail of each mouse, followed by Giemsa staining, and thereafter, the presence or absence of parasites was examined with a microscope. In some mice, parasites were confirmed 3 days after sucking blood, and thereafter, the incidence rate increased, however, whether or not malaria was developed was determined based on the presence or absence of parasites at the time point of 14 days after sucking blood in the end.
Each of the Anopheles stephensi mosquitoes in the four groups fed with the feed for 20 days in the above Example 3 was made to suck blood of the BALE/c mice (6 weeks of age, female). In each group, 50 mosquitoes were made to suck blood of 5 mice for 1 minute 5 times for each mouse. Every day from 2 days after sucking blood, a smear preparation was prepared from a small amount of blood collected from the tail of each mouse, followed by Giemsa staining, and thereafter, the presence or absence of parasites was examined with a microscope. Whether or not malaria was developed was determined at the time point of 14 days after sucking blood. […] Also in the 30 mM D-allose feeding group, the incidence rate was 100%, however, malaria was developed one day later as compared with the 10 mM D-ailose feeding group and the fructose single feeding group.
as §1, with “Example 5” for “Example 1”, “the BALE/c” for “the BALB/c”

[2] = tested on: Plasmodium berghei parasite in Anopheles stephensi mosquitoes; assay: Malaria parasite growth in the body of vector mosquitoes fed with a rare sugar (ookinete, oocyst, sporozoite counts); details: for formation of ookinetes in the midgut of the mosquito: 100 mM rare sugar + 440 mM D-fructose fed, one day after sucking infected blood, vs control
Experimental: In order to block malaria transmission, a vector mosquito is fed with a feed containing a rare sugar in advance, and then made to suck blood of a mouse infected with Plasmodium berghei parasite, whereby garaetocytes are ingested into the midgut of the vector mosquito. Thereafter, the feed containing a rare sugar is continuously given to the mosquito, and at the time point when one day has passed after the gametocytes are ingested into the body, the number of ookinetes in the midgut is evaluated, and then, the number of oocysts on the midgut after 10 days, the number of sporozoites in the midgut and the number of sporozoites in the salivary glands after 18 days are evaluated. In this manner, the malaria parasite growth inhibitory effect of the rare sugar was examined.
First, three groups, each of which includes about 200 Anopheles stephensi mosquitoes, were prepared, and in a first group, a mixed aqueous solution of 100 mM D-allose and 440 mM D-fructose was fed, in a second group, a mixed aqueous solution of 100 mM B-psicose and 440 mM D-fructose was fed, and in a third group, an aqueous solution of 440 mM D-fructose was fed, which was used as a control. Each of these aqueous solutions was placed in an Erlenmeyer flask, and a lower end portion of a filter paper was dipped in the aqueous solution, and Anopheles stephensi mosquitoes were fed with the aqueous solution absorbed in the filter paper.
Further, red blood cells infected with Plasmodium berghei parasite were intraperitoneally administered to BALB/c mice (6 weeks of age, female), whereby mice infected with malaria were prepared.
Anopheles stephensi mosquitoes in each group were made to suck each aqueous solution for 3 days, and thereafter, made to suck blood of the mice infected with Plasmodium berghei malaria, whereby the malaria parasites were incorporated in the body of Anopheles stephensi mosquitoes. Subsequently, while continuously giving the fructose aqueous solution containing a rare sugar or the aqueous solution containing only fructose, the number of parasites in the body of the mosquitoes was evaluated at the below-mentioned timings. That is, 24 hours after sucking infected blood, the number of ookinetes in the midgut was counted, the number of oocysts on the midgut was counted after 10 days, and the number of sporozoites in the midgut and in the salivary glands were counted after 18 days, and the results of the three groups were compared.
The D-allose concentration dependence for malaria parasite growth blocking effect of a rare sugar was examined. Four groups of Anopheles stephensi mosquitoes were prepared, and in a first group to a third group, mixed aqueous solutions of 10 mM, 30 mM, or 100 mM D-allose and 440 mM D-fructose were fed, respectively, and in a fourth group, an aqueous solution of 440 mM D-fructose was fed. In each of these aqueous solutions, a lower end portion of a filter paper was dipped, and Anopheles stephensi mosquitoes were fed with the aqueous solution absorbed in the filter paper.
Anopheles stephensi mosquitoes in each group were made to suck each aqueous solution for 3 days, and thereafter, made to suck blood of the mice infected with Plasmodium berghei malaria, whereby the malaria parasites were incorporated in the body of Anopheles stephensi mosquitoes. Thereafter, while continuously giving the aqueous solution containing a rare sugar or the aqueous solution containing only fructose, the number of parasites in the body of the mosquitoes was counted at respective timings. That is, 24 hours after sucking infected blood, the number of ookinetes in the midgut, was counted, the number of oocysts on the midgut was counted after 10 days, and the number of sporozoites in the midgut and in the salivary glands were counted after 18 days, and the results of the four groups were compared. […]

[3] = tested on: Plasmodium berghei parasite in Anopheles stephensi mosquitoes; assay: as above; details: Example 5, D-allose 100 mM + 440 mM D-fructose or Rare Sugar Sweet diluted 2.3 times
[4] = Example 2, mosquitoes fed 100 mM rare sugar + Fructose 440 mM for 20 days, determined 14 days after sucking blood
[5] = Examples 1 and 2, 100 mM rare sugar + 440 mM D-fructose
[6] = Example 1, 100 mM rare sugar + 440 mM D-fructose, 10 days after sucking blood
[7] = Example 1, 100 mM rare sugar + 440 mM D-fructose, 18 days after sucking blood

O=C[C@H](O)[C@H](O)[C@H](O)[C@H](O)CO [D-allose]
Incidence rate after sucking blood (%) (mice which developed malaria/mice which had their blood sucked) [1, 4]: 29% | Incidence rate after sucking blood (%) (mice which developed malaria/mice which had their blood sucked) ([1]; Example 2, mosquitoes fed 100 mM rare sugar + Fructose 440 mM for 20 days, determined 14 days after sucking blood, listed as Allose): 29 (2/7) % | number of sporozoites inoculated into the mice when having their blood sucked ([1]; Example 4, 30 mM D-allose feeding group, inferred from onset one day later): about one-tenth | malaria transmission / development of malaria in mice ([1]; Example 4, 100 mM D-allose + D-fructose): did not develop malaria | incidence rate suppressed ([1]; Example 4, 100 mM D-allose feeding group): 100% | Incidence rate after sucking blood (%) (mice which developed malaria/mice which had their blood sucked) ([1]; Example 4, Allose 10 mM + Fructose 440 mM, 14 days after sucking blood): 100% | Incidence rate after sucking blood (%) (mice which developed malaria/mice which had their blood sucked) ([1]; Example 4, Allose 10 mM + Fructose 440 mM, 14 days after sucking blood, listed as Allose): 100 (5/5) % | Incidence rate after sucking blood (%) (mice which developed malaria/mice which had their blood sucked) ([1]; Example 4, Allose 30 mM + Fructose 440 mM, 14 days after sucking blood): 100% | Incidence rate after sucking blood (%) (mice which developed malaria/mice which had their blood sucked) ([1]; Example 4, Allose 30 mM + Fructose 440 mM, 14 days after sucking blood, listed as Allose): 100 (5/5) % | onset of malaria in mice ([1]; Example 4, Allose 30 mM + Fructose 440 mM): one day later | onset of malaria in mice ([1]; Example 4, Allose 30 mM + Fructose 440 mM, listed as Allose): The onset was delayed | Incidence rate after sucking blood (%) (mice which developed malaria/mice which had their blood sucked) ([1]; Example 4, Allose 100 mM + Fructose 440 mM, 14 days after sucking blood): 0 (0/5) % | Incidence rate after sucking blood (%) (mice which developed malaria/mice which had their blood sucked) ([1]; Example 6, Allose 100 mM + Fructose 440 mM or Rare Sugar Sweet diluted 2.3 times, 14 days after sucking blood): 0 (0/5) % | malaria transmission (transmission-blocking effect) ([1]; Example 6, D-allose 100 mM + D-fructose or Rare Sugar Sweet diluted 2.3 times): completely inhibited; also recorded: completely transmission-blocking effect | malaria transmission (transmission-blocking effect) [1, 5]: significantly suppressed; also recorded: completely blocks | mice in which malaria infection was not observed ([1]; mosquitoes fed with rare sugar, 20 days after sucking blood of an infected mouse): about 70% | formation of ookinetes in the midgut of the mosquito ([2]; Example 1): not suppressed; also recorded: slight | formation of oocysts on the midgut [2, 6]: suppressed | number of oocysts suppressed as compared with the control group [2, 6]: 95% | formation of sporozoites in the midgut [2, 7]: suppressed | formation of sporozoites in the salivary glands [2, 7]: suppressed | number of sporozoites in the midgut suppressed as compared with the control group [2, 7]: 98.7% | number of sporozoites in the salivary gland suppressed as compared with the control group [2, 7]: 98.5% | number of sporozoites in the salivary glands ([2]; Example 3, 30 mM D-allose feeding group, 18 days after sucking blood): significantly decreased | number of oocysts ([2]; Example 3, D-allose 10 mM to 100 mM + 440 mM D-fructose, 10 days after sucking blood): suppressed in a D-allose concentration-dependent manner | growth into ookinetes in the midgut ([2]; Example 3, D-allose 10 mM to 100 mM + 440 mM D-fructose, one day after sucking blood): suppressed in a concentration-dependent manner | growth of oocysts on the midgut ([2]; Example 3, D-allose 100 mM + 440 mM D-fructose, 10 days after sucking blood): almost completely suppressed | formation of sporozoites (midgut and salivary glands) ([2]; Example 3, D-allose 100 mM + 440 mM D-fructose, 18 days after sucking blood): completely suppressed | suppression of the formation of ookinetes in the midgut ([2]; Example 5, D-allose 100 mM + 440 mM D-fructose or Rare Sugar Sweet diluted 2.3 times, one day after sucking blood): slight | number of oocysts suppressed as compared with the control group ([3]; 10 days after sucking blood): 100% | number of sporozoites in the midgut suppressed as compared with the control group ([3]; 18 days after sucking blood): 100% | number of sporozoites in the salivary glands suppressed ([3]; 18 days after sucking blood): 100%

O=C(CO)[C@H](O)[C@H](O)[C@H](O)CO [D-psicose]
Incidence rate after sucking blood (%) (mice which developed malaria/mice which had their blood sucked) [1, 4]: 100% | Incidence rate after sucking blood (%) (mice which developed malaria/mice which had their blood sucked) ([1]; Example 2, mosquitoes fed 100 mM rare sugar + Fructose 440 mM for 20 days, determined 14 days after sucking blood, listed as Psicose): 100 (6/6) % | malaria transmission (transmission-blocking effect) [1, 5]: not observed | formation of ookinetes in the midgut of the mosquito ([2]; Example 1): suppressed to some extent; also recorded: somewhat suppressed | formation of oocysts on the midgut [2, 6]: slightly promoted | formation of sporozoites in the salivary glands [2, 7]: slightly exceeding that in the control | number of sporozoites in the midgut suppressed as compared with the control group [2, 7]: about 60%
